The conditions of data set [1]: qualitative statement, no test described; cited from earlier work.
The subject of the next data set is IEC-6 enterocytes. The data set can be described thus: enterocyte gap junction communication by confocal based dye transfer. The class given is cell-based. To be noted: IEC-6 enterocytes treated with various concentrations of PMA for one hour; untreated cells = 100% dye transfer; FIG. 10A. The method, then: (§1) FIG. 10A-B. (A) IEC-6 enterocytes were treated with the concentrations of phorbol myristate acetate (“PMA”) indicated for one hour and then evaluated for the extent of enterocyte gap junction communication by confocal based dye transfer. The untreated cells represent the 100% dye transfer. *p<0.05 versus untreated cells. (B) IEC-6 cells were treated with the concentration of PMA indicated and assessed for their ability to migrate into a scraped wound over 20 hours. *p<0.05 vs. untreated cells. Representative of two separate experiments.
(§2) IEC-6 enterocytes were treated with various concentrations of phorbol myristate acetate (“PMA”) for one hour and then evaluated for the extent of enterocyte gap junction communication by confocal based dye transfer. […] Further, IEC-6 cells were treated with the concentration of PMA indicated and assessed for their ability to migrate into a scraped wound over 20 hours.

The next data set relates to IEC-6 cells. The data set can be described thus: migration into a scraped wound. The class given is cell-based. To be noted: migration into a scraped wound over 20 hours, increasing PMA concentration, FIG. 10B. The method, then:
as §1, §2

The structures appear in SMILES notation. Square brackets hold non-standard residues; d marks the D form. Peptide text beside a SMILES is read from it. dHyp = O=C(O)[C@H]1C[C@H](O)CN1

Turning to `NCC(=O)N1C[C@H](NC(=O)c2ccccc2)C[C@H]1C(=O)O` [GAP-134, (2S,4R)-1-(2-aminoacetyl)-4-benzamido-pyrrolidine-2-carboxylic acid], the half-life entry in data set [1] was “shorter half-life than ZP123”.

Take `CCCCCCCCCCCCCC(=O)O[C@@H]1[C@@H](C)[C@@]2(O)[C@@H](C=C(CO)C[C@]3(O)C(=O)C(C)=C[C@@H]23)[C@@H]2C(C)(C)[C@]12OC(C)=O` [PMA, phorbol myristate acetate]: in the data set on IEC-6 enterocytes, the “extent of gap junction communication (dye transfer)” value is given as “as concentrations of PMA increased, so did the extent of gap junction communication”. The “speed (rate) of enterocyte migration” value in the data set on IEC-6 cells is on record as “the speed (rate) of enterocyte migration also increased”.

Consider `CC(=O)N[C@H](Cc1ccc(O)cc1)C(=O)N1CCC[C@@H]1C(=O)N1C[C@@H](O)C[C@@H]1C(=O)NCC(=O)N[C@H](C)C(=O)NCC(N)=O` [Rotigaptide, (2R, 4S)-1-[(2R)-1-[(2R)-2-acetamido-3-(4-hydroxyphenyl)propanoyl]pyrrolidine-2-carbonyl]-N-[2-[[(2R)-1-[(2-amino-2-oxoethyl)amino]-1-oxopropan-2-yl]amino]-2-oxoethyl]-4-hydroxypyrrolidine-2-carboxamide] (Ac-[dY][dP][dHyp]G[dA]G-NH2), for which, in data set [1], the half-life result is given as “long half-life” and the stability entry is given as “stable”.

The values above are taken from patent publication US10172848B2, “Gap junction-enhancing agents for treatment of necrotizing enterocolitis and inflammatory bowel disease” (University of Pittsburgh—of the Commonwealth System of …, priority 2010, dated 2019).
